Our source for the IC50 values is patent US12428423B2, “1H-imidazo[4,5-h]quinazoline compound as protein kinase inhibitor” (SHENGKE PHARMACEUTICALS (JIANGSU) LTD., priority 2017, dated 2025).

Counter-ions that a name gives are not always drawn.

The target in one assay is CDK4/cyclin D1 (Homo sapiens (Human), UniProt P11802). Briefly: Biochemical kinase inhibitory assay, CDK4/cyclin D1. Particulars: recombinant CDK4/cyclin D1; in the presence of 10 μM ATP. As for the experimental part: Potency determination in the biochemical kinase inhibitory assay. Kinase activity assay and IC50 determination. […] The kinase reaction was initiated by the addition of 1 μg (1.5 μM) of recombinant retinoblastoma protein, 5 μM ATP and 10μ Ci γ-32P-ATP. The reaction was incubated at 30° C. for 20 minutes, and the reaction was stopped by the addition of 2× Laemmli sample buffer, heated at 95° C. for three minutes, and dissolved in 12% acrylamide SDS-PAGE for autoradiography. The corresponding phosphorylated substrate protein bands were quantified using a densitometer (Bio-Rad). […] The reaction took place in the presence of 10 μM ATP.
Chain of CDK4/cyclin D1 (P11802 whole entry): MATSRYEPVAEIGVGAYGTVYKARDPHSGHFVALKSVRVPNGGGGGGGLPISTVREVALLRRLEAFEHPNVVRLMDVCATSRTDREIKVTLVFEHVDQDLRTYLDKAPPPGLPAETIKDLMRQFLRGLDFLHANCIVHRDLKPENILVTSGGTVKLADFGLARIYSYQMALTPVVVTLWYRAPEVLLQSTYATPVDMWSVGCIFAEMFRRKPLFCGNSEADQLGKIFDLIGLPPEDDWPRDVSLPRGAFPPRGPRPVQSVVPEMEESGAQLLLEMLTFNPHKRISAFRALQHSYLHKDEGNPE
Chain of CDK4/cyclin D1 (P24385 whole entry partner): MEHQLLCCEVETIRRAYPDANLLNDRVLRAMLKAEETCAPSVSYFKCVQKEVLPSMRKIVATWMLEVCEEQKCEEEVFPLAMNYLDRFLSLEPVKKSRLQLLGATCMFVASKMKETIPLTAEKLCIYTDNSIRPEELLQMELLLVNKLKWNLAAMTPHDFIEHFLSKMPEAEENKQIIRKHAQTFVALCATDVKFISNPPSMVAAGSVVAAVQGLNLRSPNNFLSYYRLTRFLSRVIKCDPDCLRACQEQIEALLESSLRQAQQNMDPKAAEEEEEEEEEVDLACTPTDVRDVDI

The target of a further assay is CDK6/cyclin D1 (Homo sapiens (Human), UniProt Q00534). Briefly: Biochemical kinase inhibitory assay, CDK6/cyclin D1. The following applies: in the presence of 10 μM ATP. The protocol: Potency determination in the biochemical kinase inhibitory assay. Kinase activity assay and IC50 determination. […] The kinase reaction was initiated by the addition of 1 μg (1.5 μM) of recombinant retinoblastoma protein, 5 μM ATP and 10μ Ci γ-32P-ATP. The reaction was incubated at 30° C. for 20 minutes, and the reaction was stopped by the addition of 2× Laemmli sample buffer, heated at 95° C. for three minutes, and dissolved in 12% acrylamide SDS-PAGE for autoradiography. The corresponding phosphorylated substrate protein bands were quantified using a densitometer (Bio-Rad). […] The compounds disclosed herein were tested in a similar manner for their inhibitory activities against CDK6/cyclin D1, CDK2/cyclin A, CDK5/cyclin P25, CDK9/cyclin Ti, CDK7/cyclin H and CDK19/cyclin C. […] The reaction took place in the presence of 10 μM ATP.
Chain of CDK6/cyclin D1 (Q00534 whole entry): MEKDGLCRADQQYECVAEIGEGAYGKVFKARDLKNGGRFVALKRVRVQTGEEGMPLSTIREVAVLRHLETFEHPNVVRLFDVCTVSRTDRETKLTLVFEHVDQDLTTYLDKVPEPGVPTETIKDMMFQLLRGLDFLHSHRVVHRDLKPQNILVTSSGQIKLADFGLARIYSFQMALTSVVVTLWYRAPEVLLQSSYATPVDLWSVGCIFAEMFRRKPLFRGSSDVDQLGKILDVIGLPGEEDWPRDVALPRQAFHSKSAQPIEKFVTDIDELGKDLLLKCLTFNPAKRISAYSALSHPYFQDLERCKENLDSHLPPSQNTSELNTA
Chain of CDK6/cyclin D1 (P24385 whole entry partner): as the sequence (P24385 whole entry partner) above

Usually IC50 stands for the concentration at which inhibition is half-maximal. `CC(C)n1cnc2ccc3cnc(Nc4ccc(N5CCNCC5)cn4)nc3c21` [Compound I-1, 1-Isopropyl-N-(5-(piperazin-1-yl)pyridin-2-yl)-1H-imidazo[4,5-h]quinazolin-8-amine hydrochloride]: the IC50 at CDK4/cyclin D1 and on CDK6/cyclin D1 was < 2 nM throughout.
Turning to `CC(C)n1cnc2ccc3cnc(Nc4ccc(N5CCN(C)CC5)cn4)nc3c21` [Compound I-2, 1-isopropyl-N-(5-(4-methylpiperazin-1-yl)pyridin-2-yl)-1H-imidazo[4,5-h]quinazolin-8-amine], the concentration for half-maximal inhibition (IC50) at CDK4/cyclin D1 and on CDK6/cyclin D1 was 2 to 10 nM each time.
In the case of `Cc1cc(Nc2ncc3ccc4ncn(C(C)C)c4c3n2)ncc1N1CCN(C)CC1` [Compound I-3], the IC50 at CDK4/cyclin D1 and at CDK6/cyclin D1 was 2 to 10 nM in each case.
As to `Cc1nc(Nc2ncc3ccc4ncn(C(C)C)c4c3n2)ccc1N1CCN(C)CC1` [Compound I-4], the IC50 on CDK4/cyclin D1 and on CDK6/cyclin D1 was 2 to 10 nM throughout.
Consider `CCN1CCN(c2ccc(Nc3ncc4ccc5ncn(C(C)C)c5c4n3)nc2)CC1` [Compound I-5], for which the IC50 at CDK4/cyclin D1 and on CDK6/cyclin D1 was < 2 nM each time.
For `CCN1CCN(c2cnc(Nc3ncc4ccc5ncn(C(C)C)c5c4n3)cc2C)CC1` [Compound I-6], the IC50 at CDK4/cyclin D1 and at CDK6/cyclin D1 was 2 to 10 nM each time.
`CCN1CCN(c2ccc(Nc3ncc4ccc5ncn(C(C)C)c5c4n3)nc2C)CC1` [Compound I-7]: the IC50 on CDK4/cyclin D1 and on CDK6/cyclin D1 was 2 to 10 nM in each case.
Take `Cc1cc(Nc2ncc3ccc4ncn(C(C)C)c4c3n2)ncc1N1CCNCC1` [Compound I-8]: the IC50 on CDK4/cyclin D1 and at CDK6/cyclin D1 was < 2 nM each time.
As to `Cc1nc(Nc2ncc3ccc4ncn(C(C)C)c4c3n2)ccc1N1CCNCC1` [Compound I-9], the IC50 at CDK4/cyclin D1 and on CDK6/cyclin D1 was < 2 nM each time.
Regarding `CC(C)n1cnc2ccc3cnc(Nc4ccc(N5CCN[C@@H](C)C5)cn4)nc3c21` [Compound I-10], the IC50 on CDK4/cyclin D1 and at CDK6/cyclin D1 was 2 to 10 nM each time.
As to `CC(C)n1cnc2ccc3cnc(Nc4ccc(N5CCNC(C)(C)C5)cn4)nc3c21` [Compound I-11], the IC50 on CDK4/cyclin D1 and on CDK6/cyclin D1 was 2 to 10 nM each time.
Turning to `CC(C)n1cnc2ccc3cnc(Nc4ccc(N5C[C@@H](C)N[C@@H](C)C5)cn4)nc3c21` [Compound I-12], the 50% inhibitory concentration (IC50) on CDK4/cyclin D1 and on CDK6/cyclin D1 was 2 to 10 nM each time.
As to `CC(C)n1cnc2ccc3cnc(Nc4cc(F)c(N5CCNCC5)cn4)nc3c21` [Compound I-13], the IC50 on CDK4/cyclin D1 and at CDK6/cyclin D1 was 10 to 50 nM throughout.
With `CC(C)n1cnc2ccc3cnc(Nc4ccc(N5CCCNCC5)cn4)nc3c21` [Compound I-14], the IC50 on CDK4/cyclin D1 and at CDK6/cyclin D1 was 10 to 50 nM each time.
For `CC(C)n1cnc2ccc3cnc(Nc4ccc(N5CCN(CCO)CC5)cn4)nc3c21` [Compound I-15], the IC50 on CDK4/cyclin D1 and at CDK6/cyclin D1 was 10 to 50 nM each time.
Regarding `CC(C)n1cnc2ccc3cnc(Nc4ccc(N5CCCCC5)cn4)nc3c21` [Compound I-16], the concentration for half-maximal inhibition (IC50) at CDK4/cyclin D1 and at CDK6/cyclin D1 was 10 to 50 nM each time.
On to `CC(C)n1cnc2ccc3cnc(Nc4ccc(N5CCC(O)CC5)cn4)nc3c21` [Compound I-17], for which the IC50 on CDK4/cyclin D1 and on CDK6/cyclin D1 was 10 to 50 nM each time.
Consider `CC(C)n1cnc2ccc3cnc(Nc4ccc(N5CCC(CCCO)CC5)cn4)nc3c21` [Compound I-18], for which the IC50 on CDK4/cyclin D1 and on CDK6/cyclin D1 was 10 to 50 nM each time.
For `CC(C)n1cnc2ccc3cnc(Nc4ccc(N5CCC(N(C)C)CC5)cn4)nc3c21` [Compound I-19], the IC50 at CDK4/cyclin D1 and at CDK6/cyclin D1 was 10 to 50 nM in each case.
For `CC(C)n1cnc2ccc3cnc(Nc4ccc(N5CCC(N(C)C)CC5)c(F)n4)nc3c21` [Compound I-20], the IC50 on CDK4/cyclin D1 and on CDK6/cyclin D1 was 10 to 50 nM each time.
For `CC(C)n1cnc2ccc3cnc(Nc4ccc(N5CCC(N)CC5)cn4)nc3c21` [Compound I-21], the half-inhibitory concentration (IC50) at CDK4/cyclin D1 and on CDK6/cyclin D1 was 10 to 50 nM in each case.
In the case of `CC(C)n1cnc2ccc3cnc(Nc4ccc(N5CCC(N)C5)cn4)nc3c21` (stereo not shown) [Compound I-22], the IC50 at CDK4/cyclin D1 and at CDK6/cyclin D1 was 10 to 50 nM each time.
In the case of `CC(C)n1cnc2ccc3cnc(Nc4ccc(N5CCOCC5)cn4)nc3c21` [Compound I-23], the IC50 on CDK4/cyclin D1 and at CDK6/cyclin D1 was < 2 nM in each case.
Take `Cc1cc(Nc2ncc3ccc4ncn(C(C)C)c4c3n2)ncc1N1CCOCC1` [Compound I-24]: the half-maximal inhibitory concentration (IC50) at CDK4/cyclin D1 and at CDK6/cyclin D1 was 2 to 10 nM throughout.
As to `Cc1nc(Nc2ncc3ccc4ncn(C(C)C)c4c3n2)ccc1N1CCOCC1` [Compound I-25], the IC50 on CDK4/cyclin D1 and at CDK6/cyclin D1 was 2 to 10 nM throughout.
On to `CC1CN(c2ccc(Nc3ncc4ccc5ncn(C(C)C)c5c4n3)nc2)CCO1` (stereo not shown) [Compound I-26], for which the IC50 at CDK4/cyclin D1 and at CDK6/cyclin D1 was 2 to 10 nM in each case.
As for `CC(C)n1cnc2ccc3cnc(Nc4ccc(N5C[C@@H](C)O[C@@H](C)C5)cn4)nc3c21` [Compound I-27], the IC50 at CDK4/cyclin D1 and at CDK6/cyclin D1 was 2 to 10 nM in each case.
On to `CC(C)n1cnc2ccc3cnc(Nc4ccc(N5CCC6(CCNCC6)C5)cn4)nc3c21` [Compound I-28], for which the IC50 at CDK4/cyclin D1 and at CDK6/cyclin D1 was 10 to 50 nM each time.
As to `CC(C)n1cnc2ccc3cnc(Nc4ccc(N5CCC6(CNC6)C5)cn4)nc3c21` [Compound I-29], the IC50 at CDK4/cyclin D1 and at CDK6/cyclin D1 was 10 to 50 nM in each case.
Consider `CC(C)n1cnc2ccc3cnc(Nc4ccc(N5CC6(CNC6)C5)cn4)nc3c21` [Compound I-30], for which the IC50 at CDK4/cyclin D1 and on CDK6/cyclin D1 was 10 to 50 nM each time.
As to `CC(C)n1cnc2ccc3cnc(Nc4ccc(N5CCC6(CC5)CNC6)cn4)nc3c21` [Compound I-31], the IC50 at CDK4/cyclin D1 and on CDK6/cyclin D1 was 10 to 50 nM in each case.
With `CC(C)n1cnc2ccc3cnc(Nc4ccc(N5CC6(CCNCC6)C5)cn4)nc3c21` [Compound I-32], the IC50 at CDK4/cyclin D1 and at CDK6/cyclin D1 was 10 to 50 nM each time.
As to `CC(C)n1cnc2ccc3cnc(Nc4ccc(N5CCC6(CCC(=O)N6)CC5)cn4)nc3c21` [Compound I-33], the IC50 at CDK4/cyclin D1 and at CDK6/cyclin D1 was 10 to 50 nM throughout.
Turning to `CC(C)n1cnc2ccc3cnc(Nc4ccc(N5CCN(CCO)CC5)cc4)nc3c21` [Compound I-34], the IC50 on CDK4/cyclin D1 and at CDK6/cyclin D1 was 10 to 50 nM each time.
As to `CC(C)n1cnc2ccc3cnc(Nc4ccc(N5CCNCC5)cc4F)nc3c21` [Compound I-35], the IC50 at CDK4/cyclin D1 and on CDK6/cyclin D1 was 10 to 50 nM in each case.
Regarding `COc1cc(OCCN(C)C)ccc1Nc1ncc2ccc3ncn(C(C)C)c3c2n1` [Compound I-36], the 50% inhibitory concentration (IC50) on CDK4/cyclin D1 and on CDK6/cyclin D1 was 50 to 100 nM each time.
`COc1cc(OC2CCN(C)CC2)ccc1Nc1ncc2ccc3ncn(C(C)C)c3c2n1` [Compound I-37]: the IC50 at CDK4/cyclin D1 and at CDK6/cyclin D1 was 50 to 100 nM in each case.
`CC(C)n1cnc2ccc3cnc(Nc4ccc(N5CCC(CCCO)CC5)cc4)nc3c21` [Compound I-38]: the 50% inhibitory concentration (IC50) on CDK4/cyclin D1 and on CDK6/cyclin D1 was 10 to 50 nM each time.
Take `COc1ccc2cc(Nc3ncc4ccc5ncn(C(C)C)c5c4n3)ccc2n1` [Compound I-39]: the IC50 at CDK4/cyclin D1 and on CDK6/cyclin D1 was 50 to 100 nM throughout.
Turning to `COc1cc(C(=O)NC2CCN(C)CC2)ccc1Nc1ncc2ccc3ncn(C(C)C)c3c2n1` [Compound I-40], the IC50 on CDK4/cyclin D1 and on CDK6/cyclin D1 was 50 to 100 nM throughout.
In the case of `CC(C)N1CCN(c2ccc(Nc3ncc4ccc5ncn(C(C)C)c5c4n3)nn2)CC1` [Compound I-41], the IC50 on CDK4/cyclin D1 and at CDK6/cyclin D1 was 50 to 100 nM in each case.
For the compound `CCn1cnc2ccc3cnc(Nc4ccc(N5CCNCC5)cn4)nc3c21` [Compound I-42], the concentration for half-maximal inhibition (IC50) on CDK4/cyclin D1 and on CDK6/cyclin D1 was 10 to 50 nM each time.
In the case of `CCn1cnc2ccc3cnc(Nc4ccc(N5CCN(C)CC5)cn4)nc3c21` [Compound I-43], the IC50 at CDK4/cyclin D1 and at CDK6/cyclin D1 was 10 to 50 nM each time.
On to `CCn1cnc2ccc3cnc(Nc4ccc(N5C[C@@H](C)O[C@@H](C)C5)cn4)nc3c21` [Compound I-44], for which the IC50 at CDK4/cyclin D1 and at CDK6/cyclin D1 was 10 to 50 nM each time.
As for `CCn1cnc2ccc3cnc(Nc4ccc(N5CCOCC5)cn4)nc3c21` [Compound I-45], the IC50 on CDK4/cyclin D1 and at CDK6/cyclin D1 was 10 to 50 nM throughout.
`CCn1cnc2ccc3cnc(Nc4ccc(N5CCOC(C)C5)cn4)nc3c21` (stereo not shown) [Compound I-46]: the IC50 at CDK4/cyclin D1 and at CDK6/cyclin D1 was 10 to 50 nM each time.
Turning to `c1cc(Nc2ncc3ccc4ncn(C5CC5)c4c3n2)ncc1N1CCNCC1` [Compound I-47], the IC50 on CDK4/cyclin D1 and on CDK6/cyclin D1 was 2 to 10 nM each time.
Turning to `Cc1cc(Nc2ncc3ccc4ncn(C5CC5)c4c3n2)ncc1N1CCNCC1` [Compound I-48], the IC50 at CDK4/cyclin D1 and at CDK6/cyclin D1 was 10 to 50 nM throughout.
For the compound `c1cc(Nc2ncc3ccc4ncn(C5CC5)c4c3n2)ncc1N1CCOCC1` [Compound I-49], the concentration for half-maximal inhibition (IC50) at CDK4/cyclin D1 and at CDK6/cyclin D1 was 10 to 50 nM in each case.
`Cc1cc(Nc2ncc3ccc4ncn(C5CC5)c4c3n2)ncc1N1CCOCC1` [Compound I-50]: the IC50 at CDK4/cyclin D1 and at CDK6/cyclin D1 was 10 to 50 nM each time.
